In ChEMBL document CHEMBL1147469, “Design and synthesis of de novo cytotoxic alkaloids through mimicking taxoid skeleton” (Bioorg Med Chem Lett, 2004):

What was measured:
Format in all cases: functional, cell-based
[1] = test system: MDA-MB-435; assay: In vitro cytotoxic activity against growth of MDR1 transduced line (LCC6-MDR) after 72 hr; settings: Homo sapiens, MDA-MB-435, 72 h
[2] = test system: MDA-MB-435; assay: In vitro cytotoxic activity against growth of human breast carcinoma cell line (LCC6-WT) after 72 hr; settings: MDA-MB-435, 72 h
[3] = test system: MCF7S; assay: In vitro cytotoxic activity against growth of human breast carcinoma cell line (MCF-7-S) after 72 hr
[4] = test system: MCF7R; assay: In vitro cytotoxic activity against growth of MDR phenotype human breast carcinoma cell line (MCF-7-R) after 72 hr

Row | Compound | IC50 [1] | IC50 [2] | IC50 ([3]; Homo sapiens, MCF7S, 72 h) | IC50 ([4]; Homo sapiens, MCF7R, 72 h) | IC50 ([3]; mcf7s) | IC50 ([4]; mcf7r)
1 | CC(C)C[C@@H]1NC(=O)OCCCc2cccc(c2)C(=O)O[C@H]2C=CC(=O)N3C[C@H](C[C@H]23)OC(=O)[C@@H]1O | > 20 µM | > 20 µM | > 20 µM | > 20 µM |  | 
2 | COc1cccc(C(=O)O[C@H]2CCC(=O)N3C[C@@H](OC(=O)[C@H](O)[C@H](CC(C)C)NC(=O)OC(C)(C)C)C[C@H]23)c1 | > 20 µM | > 20 µM | 14 µM | > 20 µM |  | 
3 | CC(=O)O[C@H]1C(=O)[C@@]2(C)[C@H]([C@H](OC(=O)c3ccccc3)[C@]3(O)C[C@H](OC(=O)[C@H](O)[C@@H](NC(=O)c4ccccc4)c4ccccc4)C(C)=C1C3(C)C)[C@]1(OC(C)=O)CO[C@@H]1C[C@@H]2O [PACLITAXEL] | 0.379 µM | 0.004 µM | 0.002 µM | 1.19 µM |  | 
4 | CISPLATIN |  |  |  |  | 3.97 µM | 3.53 µM
